In patent US11566007B2, “Ras inhibitors” (Revolution Medicines, Inc., priority 2019, dated 2023):
Where “and” joins values, the source holds several entries; their conditions need not be identical. Identical values can stand only once. Like-named read-outs stand apart in the source and are kept apart here.

Key:
[1] = target: KRAS G12S (Homo sapiens (Human), UniProt P01116+P62937, G12S); assay: Ras-Raf (BRAF RBD) disruption / FRET / MOA assay, KRAS G12S; type: biochemical; details: Ras-Raf disruption/FRET/MOA assay; class symbols; read-out: KRAS G12S FRET data IC50
Procedure, shortened: (§1)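 Compound-driven ternary complex of nucleotide-loaded Ras with cyclophilin A, disrupting BRAF RBD binding. 10-point 3-fold dilution from 30 μM final, 3 h at 25° C, then anti-His Eu-W1024 (10 nM) and anti-GST allophycocyanin (50 nM) for 1.5 h. IC50 from TR-FRET ratio decrease versus DMSO.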

[2] = target: NRAS G12C (Homo sapiens (Human), UniProt P01111+P62937, G12C); assay: Ras-Raf (BRAF RBD) disruption / FRET / MOA assay, NRAS G12C; type: biochemical; details: read-out: IC50* NRAS G12C FRET data
Description: (§2) The purpose of this biochemical assay is to measure the ability of test compounds to facilitate ternary complex formation between a nucleotide-loaded Ras isoform and cyclophilin A; the resulting ternary complex disrupts binding to a BRAF^RBD construct, inhibiting Ras signaling through a RAF effector.
(§3) Compound is present in plate wells as a 10-point 3-fold dilution series starting at a final concentration of 30 μM. After incubation at 25° C. for 3 hours, a mixture of Anti-His Eu-W1024 and anti-GST allophycocyanin is then added to assay sample wells at final concentrations of 10 nM and 50 nM, respectively, and the reaction incubated for an additional 1.5 hours. […] Compounds that facilitate disruption of a Ras:RAF complex are identified as those eliciting a decrease in the TR-FRET ratio relative to DMSO control wells.
This protocol may also be executed substituting other Ras proteins or nucleotides. […]

[3] = target: K-Ras G12C (Homo sapiens (Human), UniProt P01116+P62937, G12C); assay: Ras-Raf (BRAF RBD) disruption / FRET / MOA assay, KRAS G12C; type: biochemical; details: KRAS G12C; Ras-Raf disruption/FRET/MOA assay; read-out: IC50* KRAS G12C FRET data
Description: as §2, §3
(§4) This protocol may also be executed substituting other Ras proteins or nucleotides.
(§5) The purpose of this biochemical assay was to measure the ability of test compounds to facilitate ternary complex formation between a nucleotide-loaded K-Ras isoform and Cyclophilin A; the resulting ternary complex disrupts binding to a BRAF^RBD construct, inhibiting K-Ras signaling through a RAF effector. Data is reported as IC50 values.
as §3, with “Compound was” for “Compound is”, “allophycocyanin was” for “allophycocyanin is”, “a K-Ras:RAF” for “a Ras:RAF”, “complex were” for “complex are”

[4] = target: KRAS G12D (Homo sapiens (Human), UniProt P01116+P62937, G12D); assay: Ras-Raf (BRAF RBD) disruption / FRET / MOA assay, KRAS G12D; type: biochemical; details: Ras-Raf disruption/FRET/MOA assay; class symbols; read-out: KRAS G12D FRET data IC50
Procedure, shortened: as §1

[5] = tested on: NCI-H358 cells (K-Ras G12C); assay: Potency assay: pERK in NCI-H358 cells; type: cell-based, human; details: H358 KRAS G12C, read-out: pERK EC50
Procedure, shortened: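 4 h cpd, 37 °C; 10-pt 3-fold series, 10 mM DMSO top stock, duplicates. Readout pERK: AlphaLISA SureFire Ultra or In-Cell Western (IR-800CW secondary, DRAQ5 DNA stain). IC50, 4-PL fit vs log conc.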

[6] = target: KRAS WT (Homo sapiens (Human), UniProt P01116+P62937); assay: Ras-Raf (BRAF RBD) disruption / FRET / MOA assay, KRAS WT; type: biochemical; details: read-out: IC50* KRAS WT FRET data
Description: as §2, §3, §4, §5
as §3, with “Compound was” for “Compound is”, “allophycocyanin was” for “allophycocyanin is”, “a K-Ras:RAF” for “a Ras:RAF”, “complex were” for “complex are”

[7] = target: K-Ras G13C (Homo sapiens (Human), UniProt P01116+P62937, G13C); assay: Ras-Raf (BRAF RBD) disruption / FRET / MOA assay, KRAS G13C; type: biochemical; details: KRAS G13C; Ras-Raf disruption/FRET/MOA assay; read-out: IC50* KRAS G13C FRET data
Description: as §2, §3, §4, §5
as §3, with “Compound was” for “Compound is”, “allophycocyanin was” for “allophycocyanin is”, “a K-Ras:RAF” for “a Ras:RAF”, “complex were” for “complex are”

[8] = target: KRAS G12V (Homo sapiens (Human), UniProt P01116+P62937, G12V); assay: Ras-Raf (BRAF RBD) disruption / FRET / MOA assay, KRAS G12V; type: biochemical; details: read-out: IC50* KRAS G12V FRET data
Description: as §2, §3, §4, §5
as §3, with “Compound was” for “Compound is”, “allophycocyanin was” for “allophycocyanin is”, “a K-Ras:RAF” for “a Ras:RAF”, “complex were” for “complex are”

[9] = tested on: NCI-H358 (K-Ras G12C); assay: CellTiter-Glo cell viability assay, NCI-H358; type: cell-based, human; details: Homo sapiens, NCI-H358, 120 h, NCI-H358, 5-day treatment; class symbols; read-out: Additional H358 Cell Viability assay data (K-Ras G12C, IC50)
Procedure, shortened: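 Viability measured by CellTiter-Glo luminescence on day 5 following direct addition of compound to plated cells. Values expressed as percent of mean DMSO signal; curves fitted with a four-parameter logistic model.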

Chain of K-Ras G13C (P01116-2 other isoform, or with tags, fused parts or gaps G13C): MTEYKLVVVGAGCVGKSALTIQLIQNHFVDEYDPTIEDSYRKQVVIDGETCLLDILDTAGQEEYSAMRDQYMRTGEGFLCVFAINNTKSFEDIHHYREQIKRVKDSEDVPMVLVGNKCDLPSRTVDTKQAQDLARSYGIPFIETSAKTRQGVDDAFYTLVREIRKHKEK
Chain of K-Ras G13C (P62937 whole entry): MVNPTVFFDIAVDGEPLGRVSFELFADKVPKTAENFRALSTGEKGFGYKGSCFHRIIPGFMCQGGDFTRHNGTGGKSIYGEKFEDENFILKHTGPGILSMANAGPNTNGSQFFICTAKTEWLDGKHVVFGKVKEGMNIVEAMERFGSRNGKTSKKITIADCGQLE
Chain of KRAS G12D (P01116-2 other isoform, or with tags, fused parts or gaps G12D): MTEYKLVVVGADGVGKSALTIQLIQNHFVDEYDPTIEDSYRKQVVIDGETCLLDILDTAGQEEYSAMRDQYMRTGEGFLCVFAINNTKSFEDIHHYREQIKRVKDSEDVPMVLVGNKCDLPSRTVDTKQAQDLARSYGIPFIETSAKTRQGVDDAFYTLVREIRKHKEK
Chain of KRAS G12D (P62937 whole entry): as the sequence (P62937 whole entry) above
Chain of KRAS G12V (P01116-2 other isoform, or with tags, fused parts or gaps G12V): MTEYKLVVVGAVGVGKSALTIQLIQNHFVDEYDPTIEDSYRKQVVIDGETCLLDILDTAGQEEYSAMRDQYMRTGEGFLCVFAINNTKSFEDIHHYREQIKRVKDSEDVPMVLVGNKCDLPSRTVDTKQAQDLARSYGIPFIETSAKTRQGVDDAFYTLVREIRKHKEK
Chain of KRAS G12V (P62937 whole entry): as the sequence (P62937 whole entry) above
Chain of KRAS WT (P01116-2 other isoform, or with tags, fused parts or gaps): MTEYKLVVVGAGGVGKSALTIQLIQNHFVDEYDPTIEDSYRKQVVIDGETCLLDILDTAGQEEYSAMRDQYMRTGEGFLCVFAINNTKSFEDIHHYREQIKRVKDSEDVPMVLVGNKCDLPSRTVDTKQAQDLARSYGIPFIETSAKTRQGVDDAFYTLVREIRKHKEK
Chain of KRAS WT (P62937 whole entry): as the sequence (P62937 whole entry) above
Chain of K-Ras G12C (P01116-2 other isoform, or with tags, fused parts or gaps G12C): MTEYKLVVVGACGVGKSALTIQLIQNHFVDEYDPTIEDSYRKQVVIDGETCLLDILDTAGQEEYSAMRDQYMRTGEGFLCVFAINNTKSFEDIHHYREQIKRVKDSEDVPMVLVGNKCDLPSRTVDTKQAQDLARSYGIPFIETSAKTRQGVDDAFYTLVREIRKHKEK
Chain of K-Ras G12C (P62937 whole entry): as the sequence (P62937 whole entry) above
Chain of KRAS G12S (P01116-2 other isoform, or with tags, fused parts or gaps G12S): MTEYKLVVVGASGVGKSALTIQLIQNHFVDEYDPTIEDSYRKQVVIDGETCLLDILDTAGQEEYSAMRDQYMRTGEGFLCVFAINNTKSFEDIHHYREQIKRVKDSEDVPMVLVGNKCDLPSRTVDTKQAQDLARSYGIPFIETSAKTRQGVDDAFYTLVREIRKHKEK
Chain of KRAS G12S (P62937 whole entry): as the sequence (P62937 whole entry) above
Chain of NRAS G12C (P01111 whole entry G12C, canonical isoform): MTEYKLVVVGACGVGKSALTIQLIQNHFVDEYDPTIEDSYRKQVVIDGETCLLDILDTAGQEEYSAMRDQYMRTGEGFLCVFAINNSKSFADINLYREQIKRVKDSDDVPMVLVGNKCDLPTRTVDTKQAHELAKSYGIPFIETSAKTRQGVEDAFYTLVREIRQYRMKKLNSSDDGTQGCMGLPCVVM
Chain of NRAS G12C (P62937 whole entry, canonical isoform): as the sequence (P62937 whole entry) above

SMILES	IC50 [1]	IC50 [2] [nM]	IC50 [3]	IC50 [4] [nM]	EC50 ([5]; Homo sapiens, NCI-H358) [nM]	IC50 [6]	IC50 [7]	IC50 [8]	IC50 [9] [nM]	EC50 [5] [nM]
C=CC(=O)N1CC[C@H](C(=O)N(C)[C@H](C(=O)N[C@H]2Cc3nc(cs3)-c3ccc4c(c3)c(c(-c3cc(C5=CCN(C)CC5)cnc3[C@H](C)OC)n4CC)CC(C)(C)COC(=O)[C@@H]3CCCN(N3)C2=O)C(C)C)C1 (atropisomer, axis not shown) [Example A521]	1000 to 10000 nM	1000 to 10000	1000 to 10000 nM	> 10000	< 5000	–	–	–	–	–
CCn1c(-c2cccnc2COC)c2c3cc(ccc31)-c1cc(O)cc(c1)C[C@H](NC(=O)[C@H](C(C)C)N(C)C(=O)c1ccc(NC(=O)/C=C/CN(C)C)cn1)C(=O)N1CCC[C@H](N1)C(=O)OCC(C)(C)C2 [Example A067]	1000 to 10000 nM	–	10 to 100 nM	1000 to 10000	–	1000 to 10000 nM	10 to 100 nM	1000 to 10000 nM	–	–
CCn1c(-c2cccnc2COC)c2c3cc(ccc31)-c1cc(O)cc(c1)C[C@H](NC(=O)[C@H](C(C)C)N(C)C(=O)C1CN(C(=O)/C=C/CN(C)C)C1)C(=O)N1CCC[C@H](N1)C(=O)OCC(C)(C)C2 [Example A071]	1000 to 10000 nM	–	10 to 100 nM	1000 to 10000	–	1000 to 10000 nM	10 to 100 nM	1000 to 10000 nM	–	–
C=CC(=O)N1CC[C@H](C(=O)N(C)[C@H](C(=O)N[C@H]2Cc3cc(O)cc(c3)-c3ccc4c(c3)c(c(-c3ccccc3CCN3CCCC3)n4CC)CC(C)(C)COC(=O)[C@@H]3CCCN(N3)C2=O)C(C)C)C1 [Example A100]	> 10000 nM	–	1000 to 10000 nM	> 10000	< 5000	> 10000 nM	> 10000 nM	> 10000 nM	100 to 1000	–
C=CC(=O)N(C)CCCC(=O)N(C)[C@H](C(=O)N[C@H]1Cc2cc(O)cc(c2)-c2ccc3c(c2)c(c(-c2cccnc2COC)n3CC)CC(C)(C)COC(=O)[C@@H]2CCCN(N2)C1=O)C(C)C [Example A101]	100 to 1000 nM	–	100 to 1000 nM	1000 to 10000	< 5000	100 to 1000 nM	100 to 1000 nM	100 to 1000 nM	100 to 1000	–
CCn1c(-c2cccnc2COC)c2c3cc(ccc31)-c1cc(C)cc(c1)C[C@H](NC(=O)[C@H](C(C)C)N(C)C(=O)[C@H]1CCN(C(=O)C#CCN(C)C)C1)C(=O)N1CCC[C@H](N1)C(=O)OCC(C)(C)C2 [Example A157]	> 10000 nM	< 10	< 10 nM	1000 to 10000	–	–	100 to 1000 nM	–	–	< 5000
C=CC(=O)N1CC[C@H](C(=O)N(C)[C@H](C(=O)N[C@H]2Cc3cc(O)cc(c3)-c3ccc4c(c3)c(c(-c3ccccc3CCOC)n4CC)C[C@H](C)COC(=O)[C@@H]3CCCN(N3)C2=O)C(C)C)C1 [Example A215]	1000 to 10000 nM and > 10000 nM	–	100 to 1000 nM and > 10000 nM	> 10000	< 5000	> 10000 nM	> 10000 nM	1000 to 10000 nM and > 10000 nM	–	–
C=CC(=O)N1CC[C@]2(CCCN([C@H](C(=O)N[C@H]3Cc4cc(O)cc(c4)-c4ccc5c(c4)c(c(-c4ccccc4CCOC)n5CC)CC(C)(C)COC(=O)[C@@H]4CCCN(N4)C3=O)C(C)C)C2=O)C1 [Example A217]	1000 to 10000 nM and > 10000 nM	–	100 to 1000 nM and > 10000 nM	> 10000	< 5000	1000 to 10000 nM and > 10000 nM	1000 to 10000 nM and > 10000 nM	1000 to 10000 nM and > 10000 nM	–	–
